PubChem BioAssay AID179 (DTP/NCI, 2004)
Calls of active or inactive are those of the source.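 Rule for the calls: active = compounds giving half or more protection of infected cells from virus-caused growth loss, again on retest; inactive = the rest.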

Test system: CEM cells HIV-1 protection, formazan growth assay
Assay: NCI AIDS Antiviral Assay
Conditions: for IC50: measured here: growth of uninfected CEM cells
How it was run: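 Five concentrations of each compound were applied to infected and uninfected human CEM cells. Protection from HIV-1 was judged from growth measured with a soluble formazan assay.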

## C[C@H]1O[C@@H](C(C)(C)C)OC(=O)[C@@H]1C(OC(=O)c1ccccc1)c1cccc2ccccc12 (stereo not given in full)
  EC50: > 200 µM
  IC50: 83.2 µM

## C/C(=C(/C)c1cc[n+](C)cc1)c1cc[n+](C)cc1
  EC50: > 11.2 µM
  IC50: > 11.2 µM

## COC(=O)C1=CC(=O)N2CCN=C2S1
  EC50: > 200 µM
  IC50: > 200 µM

## CN1CCN(c2c(C(=O)Nc3ccc([N+](=O)[O-])cc3)cc([N+](=O)[O-])cc2[N+](=O)[O-])CC1
  EC50: > 200 µM
  IC50: > 100 µM

## O=[N+]([O-])c1cc([N+](=O)[O-])c2no[n+]([O-])c2c1Nc1ccccc1
  EC50: > 56.2 µM
  IC50: > 56.2 µM

## COC(=O)C1(O)CC(=O)CCC1c1ccc(OC)cc1 (stereo not given)
  EC50: > 275 µM
  IC50: > 275 µM

## CCOC(=O)c1c2ccccc2n2c(=O)n(-c3ccccc3)nnc12
  EC50: > 200 µM
  IC50: 35.5 µM

## CN(C)c1ccc(C=Nc2ccc(S(N)(=O)=O)cc2)cc1
  EC50: > 200 µM
  IC50: > 200 µM

## O=C1CC(c2cccc(Cl)c2)n2cccc21 (stereo not given)
  EC50: > 200 µM
  IC50: 93.3 µM

## Cn1c2ccccc2n2c3ccccc3c3nnc(N)c-3c12
  EC50: > 200 µM
  IC50: 28.2 µM

## CSc1nc2c(c(O)c(C)c(=O)n2C2OC(COC(C)=O)C(OC(C)=O)C(OC(C)=O)C2OC(C)=O)c(=O)n1C (stereo not given)
  EC50: > 44.7 µM
  IC50: > 44.7 µM

## COc1cc2oc(=O)ccc2cc1CC=C(C)C
  EC50: > 40.7 µM
  IC50: > 40.7 µM

## O=C1/C(=C/c2ccccc2)CN(C(=O)Oc2ccc(Cl)cc2)C/C1=C\c1ccccc1
  outcome: inactive

## CSP(=S)(SC)SC(C)c1ccc(C)cc1 (stereo not given)
  outcome: inactive

## CCOC(=O)c1ccc(CS(=O)c2ccc(C)cc2)c([N+](=O)[O-])c1 (stereo not given)
  EC50: > 74.1 µM
  IC50: 14.5 µM

## N#CC1=C(C#N)SCCCS1
  EC50: > 14.8 µM
  IC50: > 14.8 µM

## [Cu+2].[Cu+2].[Cu+2].[Cu+2].[O-]CCN(CC[OH2+])CC[OH2+].[O-]CCN(CC[OH2+])CC[OH2+].[O-]CCN(CC[OH2+])CC[OH2+].[O-]CCN(CC[OH2+])CC[OH2+]
  EC50: > 200 µM
  IC50: 4.79 µM

## Cc1cc2c(=O)cc(-c3ccc(C(=O)O)cc3)oc2c(C(N)=O)c1C
  outcome: inactive

## c1ccc(C2(c3cc4ccccc4[nH]3)OCCO2)nc1
  EC50: > 200 µM
  IC50: > 200 µM

## COc1ccc(Cc2nccc3cc(OC)c(OC)cc23)cc1
  EC50: > 72.4 µM
  IC50: 69.2 µM

## CCc1ccccc1NC(=O)/C(N=O)=C(/C)O
  EC50: > 151 µM
  IC50: > 151 µM

## O=c1nc2occc2cn1C1CC(O)C(CO)O1 (stereo not given)
  EC50: > 513 µM
  IC50: > 513 µM

## CC1C(N2CCCCC2)N(C(=O)c2ccccc2)SC12c1ccccc1-c1ccccc12 (stereo not given)
  EC50: > 42.7 µM
  IC50: > 42.7 µM

## O=C([O][Bi]([c]1ccccc1)[c]1ccccc1)C(F)(F)F
  EC50: > 20 µM
  IC50: 15.1 µM

## O=C(CCc1nnc2s/c(=C\c3ccc([N+](=O)[O-])cc3)c(=O)n12)Nc1ccc(Cl)c(Cl)c1
  EC50: > 69.2 µM
  IC50: 38.9 µM

## Cn1c(=O)cc(NNc2ccc(Cl)c(Cl)c2)[nH]c1=O
  EC50: > 200 µM
  IC50: 3.09 µM

## OCC1C(CO)C2CC1C1N=NN(c3ccccc3)C21 (stereo not given)
  EC50: > 324 µM
  IC50: > 324 µM

## O=C/C1=C/C2=Cc3ccccc3C=C(/C=C(/C=O)C1)C2
  EC50: > 100 µM
  IC50: 43.7 µM

## COc1ccc(C2=Nn3c(nc4sc(C)c(C)c4c3=O)SC2)cc1
  EC50: > 200 µM
  IC50: > 200 µM

## CC1(C)COC2(C)N(c3ccccc3)C(=O)ON12 (stereo not given)
  EC50: > 200 µM
  IC50: > 200 µM

## CC1(C)OCC2OC3(CO)NP(=O)(N(CCCl)CCCl)OC3C2O1 (stereo not given)
  outcome: inactive

## COc1ccc2c(c1)CCC1C3(CCCC21C)OCCO3 (stereo not given)
  EC50: > 100 µM
  IC50: 20.4 µM

## CNc1ccc(C=C2C=CC=C2)cc1
  EC50: > 74.1 µM
  IC50: 39.8 µM

## COC1(OC)CCCc2c1no[n+]2[O-]
  EC50: > 200 µM
  IC50: > 200 µM

## COC1OC(CS(=O)(=O)O)C(O)C(O)C1O (stereo not given)
  outcome: inactive

## O=C(C[C@@H]1CCCN2CCCC[C@H]12)N1c2ccccc2Sc2ccc(Cl)cc21
  EC50: > 200 µM
  IC50: 20.9 µM

## O=C(Cn1c2c(c3ccccc31)CCCC2)NC1CCCCC1
  EC50: > 200 µM
  IC50: > 200 µM

## COc1ccc(CCNC(=O)Cc2ccccc2CO)cc1OC
  EC50: > 200 µM
  IC50: > 200 µM

## CN(CCN(C)C(=O)CCn1cc(F)c(=O)[nH]c1=O)C(=O)CCn1cc(F)c(=O)[nH]c1=O
  EC50: > 57.5 µM
  IC50: > 57.5 µM

## COc1cc2c(cc1OC)C1CNC(C2)c2cc(OC)c(OC)cc21 (stereo not given)
  EC50: > 200 µM
  IC50: > 200 µM

## CCOc1c2c(cc3c1C(=O)c1c(OC)cccc1C3=O)C=C(OC)CC2
  EC50: > 25.1 µM
  IC50: 13.5 µM

## CC1(CCCCO)C=CC(S(=O)(=O)c2ccccc2)CC1 (stereo not given)
  outcome: inactive

## Clc1ccc(C2SCc3nc4ccccc4n32)c(Cl)c1 (stereo not given)
  outcome: inactive

## COc1ccc(C(CC(=O)c2cccs2)C(=O)c2ccc3c(c2)OCO3)cc1 (stereo not given)
  EC50: > 200 µM
  IC50: 102 µM

## C=C1C[C@@H]2O[C@H]3[C@H]4[C@@H](C[C@@H](C)[C@@H](OC(C)=O)[C@H]42)[C@@H](C)CO[C@@]3(C)[C@H](OC(C)=O)C[C@H]1O
  EC50: > 200 µM
  IC50: 51.3 µM

## CC(=O)CC(c1ccccc1)c1c(O)c2ccccc2oc1=O (stereo not given)
  EC50: > 813 µM
  IC50: 372 µM
